# Data from article PMC7179653 (Antimicrobial Agents and Chemotherapy, 2020).
# Where two headings read alike, the source gives them in different places.
# Columns and labels:
# [1] = SAD study: single-dose nacubactam pharmacokinetics (plasma/urine, LC-MS/MS, noncompartmental); format: in vivo; conditions: human, iv; for AUC(0-inf) / AUC(0-t) / Cmax / Tmax / k el / clearance / Vd / half-life: plasma
# Procedure: (§1) Study treatments were administered as 30-min (SAD study) or 90-min (MAD study) i.v. infusions, the latter to investigate the pharmacokinetics using a longer infusion time, which is commonly used to increase the time above the MIC of β-lactams ([15]). The choice of a 90-min infusion time for the MAD study was dictated by the stability and toxicology data available at the time the study was being designed. […] Safety assessments included monitoring of AEs, laboratory safety tests (hematology, serum chemistry, and urinalysis), 12-lead ECG (discrete recordings and 24-h Holter recording), and vital signs (blood pressure, pulse rate, and body temperature). In the SAD study, safety assessments were performed predose at screening, at day 1, postdose periodically on days 1, 2, and 7 (follow-up), and at early withdrawal, if relevant. […] In the MAD study, safety assessments were done predose at screening, at day 2, postdose periodically on days 1, 2, 4, 7, and 8, on days 13 to 15 (follow-up), and at early withdrawal, if relevant. […] On all other days, a single predose sample was collected for pharmacokinetic evaluation prior to the morning infusion. Blood was collected into lithium-heparin tubes and stored at a nominal –80°C temperature until analysis.
# [2] = MAD study: nacubactam pharmacokinetics, multiple doses and single dose alone or with meropenem; format: in vivo, human; conditions: for CL renal at 7 days / CL renal: plasma and urine; for AUC(0-t): read-out: AUC0–8h; for Tmax at 7 days: day 7, n = 6, median (range)
# Procedure: as §1, with “The MAD study consisted of three parts (Fig. 1). […] Participants were enrolled in two sequential cohorts (cohort 1, followed by cohort 2). […] Participants were also enrolled in two sequential cohorts (cohort 3, followed by cohort 4). […] A washout period of approximately 24 h between treatments was provided. Study” for “Study”
# [3] = 1000 mg, single i.v. dose 1,000 mg, n = 6, mean (SD)
# [4] = 2000 mg, single i.v. dose 2,000 mg, n = 6, mean (SD)
# [5] = single i.v. dose 50 mg, n = 6, mean (SD)
# [6] = single i.v. dose 150 mg, n = 6, mean (SD)
# [7] = single i.v. dose 500 mg, n = 6, mean (SD)
# [8] = MAD part 3, single dose (day 1 or 2) nacubactam 2,000 mg alone, geometric mean (%CV)
# [9] = MAD part 3, single dose (day 3) nacubactam 2,000 mg plus meropenem 2,000 mg, geometric mean (%CV)
# [10] = human, plasma, intravenous, 1000 mg, MAD part 1, 1,000 mg q8h for 7 days, day 7, n = 6, geometric mean (%CV)
# [11] = human, plasma, intravenous, 2000 mg
# [12] = human, plasma, intravenous, 2000 mg, MAD part 1, 2,000 mg q8h for 7 days, day 7, n = 6, geometric mean (%CV)
# [13] = human, plasma, intravenous, 2000 mg, MAD part 3, single dose (day 1 or 2) nacubactam 2,000 mg alone, geometric mean (%CV)
# [14] = human, plasma, intravenous, 4000 mg, MAD part 2, 4,000 mg q8h for 7 days, day 9, n = 6, geometric mean (%CV)
# [15] = human, plasma, intravenous, MAD part 3, single dose (day 3) nacubactam 2,000 mg plus meropenem 2,000 mg, geometric mean (%CV)
compound,measurement,setting,value
NCCONC(=O)[C@@H]1CC[C@@H]2CN1C(=O)N2OS(=O)(=O)O [Nacubactam],CL renal,"[1]; plasma and urine, single i.v. doses, 6.86 ± 0.64 to 9.66 ± 1.66, read-out: mean CLR (renal clearance), range over the five dose levels",114 to 161 mL/min
same,AUC(0-inf),[1]; [3],143 µg·h/mL
same,AUC(0-t),[1]; [3],142 µg·h/mL
same,Cmax,[1]; [3],72 µg/mL
same,Tmax,[1]; [3],0.5 h
same,k el,[1]; [3],9.72e-05 s⁻¹
same,clearance,"[1]; 1000 mg, single i.v. dose 1,000 mg, n = 6, mean (SD), read-out: CL (converted)",117 mL/min
same,Vd,"[1]; 1000 mg, single i.v. dose 1,000 mg, n = 6, mean (SD), read-out: Vss",17 L
same,half-life,"[1]; 1000 mg, single i.v. dose 1,000 mg, n = 6, mean (SD), read-out: t1/2 (converted)",2.05 h
same,AUC(0-inf),[1]; [4],229 µg·h/mL
same,AUC(0-t),[1]; [4],229 µg·h/mL
same,Cmax,[1]; [4],112 µg/mL
same,Tmax,[1]; [4],0.5 h
same,k el,[1]; [4],8.61e-05 s⁻¹
same,clearance,"[1]; 2000 mg, single i.v. dose 2,000 mg, n = 6, mean (SD), read-out: CL (converted)",146 mL/min
same,Vd,"[1]; 2000 mg, single i.v. dose 2,000 mg, n = 6, mean (SD), read-out: Vss",20.6 L
same,half-life,"[1]; 2000 mg, single i.v. dose 2,000 mg, n = 6, mean (SD), read-out: t1/2 (converted)",2.36 h
same,AUC(0-inf),[1]; [5],5.21 µg·h/mL
same,AUC(0-t),[1]; [5],5.08 µg·h/mL
same,Cmax,[1]; [5],2.69 µg/mL
same,Tmax,[1]; [5],0.54 h
same,k el,[1]; [5],0.000106 s⁻¹
same,clearance,"[1]; single i.v. dose 50 mg, n = 6, mean (SD), read-out: CL (converted)",164 mL/min
same,Vd,"[1]; single i.v. dose 50 mg, n = 6, mean (SD), read-out: Vss",22.4 L
same,half-life,"[1]; single i.v. dose 50 mg, n = 6, mean (SD), read-out: t1/2 (converted)",1.83 h
same,AUC(0-inf),[1]; [6],16.3 µg·h/mL
same,AUC(0-t),[1]; [6],16.1 µg·h/mL
same,Cmax,[1]; [6],9.02 µg/mL
same,Tmax,[1]; [6],0.5 h
same,k el,[1]; [6],0.000111 s⁻¹
same,clearance,"[1]; single i.v. dose 150 mg, n = 6, mean (SD), read-out: CL (converted)",157 mL/min
same,Vd,"[1]; single i.v. dose 150 mg, n = 6, mean (SD), read-out: Vss",20.2 L
same,half-life,"[1]; single i.v. dose 150 mg, n = 6, mean (SD), read-out: t1/2 (converted)",1.76 h
same,AUC(0-inf),[1]; [7],53.9 µg·h/mL
same,AUC(0-t),[1]; [7],53.6 µg·h/mL
same,Cmax,[1]; [7],31.3 µg/mL
same,Tmax,[1]; [7],0.5 h
same,k el,[1]; [7],0.000108 s⁻¹
same,clearance,"[1]; single i.v. dose 500 mg, n = 6, mean (SD), read-out: CL (converted)",156 mL/min
same,Vd,"[1]; single i.v. dose 500 mg, n = 6, mean (SD), read-out: Vss",19.6 L
same,half-life,"[1]; single i.v. dose 500 mg, n = 6, mean (SD), read-out: t1/2 (converted)",1.77 h
same,clearance,"[1]; single i.v. doses 50 to 2,000 mg, read-out: mean CL, range across doses",117 to 164 mL/min
same,Vd,"[1]; single i.v. doses 50 to 2,000 mg, read-out: mean Vss, range across doses",17 to 22.4 L
same,half-life,"[1]; single i.v. doses, 1.76 ± 0.17 to 2.36 ± 0.46, read-out: mean apparent terminal elimination half-life (t1/2), range across doses",1.76 to 2.36 h
same,Fe%0–8h (cumulative percentage of dose excreted in urine from time zero to 8 h),"[2]; MAD part 1, 1,000 mg q8h for 7 days, day 7, n = 6, geometric mean (%CV)",81.9 (1) %
same,Fe%0–8h (cumulative percentage of dose excreted in urine from time zero to 8 h),"[2]; MAD part 1, 2,000 mg q8h for 7 days, day 7, n = 6, geometric mean (%CV)",87.0 (11) %
same,Fe%0–8h (cumulative percentage of dose excreted in urine from time zero to 8 h),"[2]; MAD part 2, 4,000 mg q8h for 7 days, day 9, n = 6, geometric mean (%CV)",83.9 (9) %
same,Fe%0–8h (cumulative percentage of dose excreted in urine from time zero to 8 h),[2]; [8],85.5 (13) %
same,Fe%0–24h (cumulative percentage of dose excreted in urine from time zero to 24 h),[2]; [8],91.1 (10) %
same,Fe%0–8h (cumulative percentage of dose excreted in urine from time zero to 8 h),[2]; [9],82.7 (12) %
same,Fe%0–24h (cumulative percentage of dose excreted in urine from time zero to 24 h),[2]; [9],88.4 (11) %
same,accumulation in plasma,[2]; following 7 days of q8h dosing,minimal accumulation
same,route of elimination,[2]; following single and multiple doses,excreted largely unchanged into urine
same,contribution of nonrenal elimination processes on clearance,[2]; from difference between CL and CLR,< 20%
same,CL renal at 7 days,"[2]; human, intravenous, 1000 mg, MAD part 1, 1,000 mg q8h for 7 days, day 7, n = 6, geometric mean (%CV)",112 mL/min
same,CL renal at 7 days,"[2]; human, intravenous, 2000 mg, MAD part 1, 2,000 mg q8h for 7 days, day 7, n = 6, geometric mean (%CV)",104 mL/min
same,CL renal,"[2]; human, intravenous, 2000 mg, MAD part 3, single dose (day 1 or 2) nacubactam 2,000 mg alone, geometric mean (%CV), read-out: CLR (converted)",142 mL/min
same,CL renal at 7 days,"[2]; human, intravenous, 4000 mg, MAD part 2, 4,000 mg q8h for 7 days, day 9, n = 6, geometric mean (%CV)",113 mL/min
same,CL renal,"[2]; human, intravenous, MAD part 3, single dose (day 3) nacubactam 2,000 mg plus meropenem 2,000 mg, geometric mean (%CV), read-out: CLR (converted)",135 mL/min
same,CL renal,"[2]; human, intravenous, single (1,000 to 8,000 mg) and multiple (1,000 to 4,000 mg) doses, read-out: estimated CLR, range",91.7 to 142 mL/min
same,Cmax at 7 days,[2]; [10],36.6 µg/mL
same,half-life,[2]; [10],2.66 h
same,AUC(0-t),[2]; [10],118 µg·h/mL
same,clearance,"[2]; human, plasma, intravenous, 1000 mg, MAD part 1, 1,000 mg q8h for 7 days, day 7, n = 6, geometric mean (%CV), read-out: CL (converted)",142 mL/min
same,Vd at 7 days,"[2]; human, plasma, intravenous, 1000 mg, MAD part 1, 1,000 mg q8h for 7 days, day 7, n = 6, geometric mean (%CV), read-out: Vss",21.9 L
same,Tmax at 7 days,"[2]; human, plasma, intravenous, 1000 mg, MAD part 1, 1,000 mg q8h for 7 days",1 h
same,AUC(0-inf),[2]; [11],225 µg·h/mL
same,Cmax,[2]; [11],66 µg/mL
same,Tmax,[2]; [11],1 h
same,Cmax at 7 days,[2]; [12],89.6 µg/mL
same,half-life,[2]; [12],2.66 h
same,AUC(0-t),[2]; [12],279 µg·h/mL
same,clearance,"[2]; human, plasma, intravenous, 2000 mg, MAD part 1, 2,000 mg q8h for 7 days, day 7, n = 6, geometric mean (%CV), read-out: CL (converted)",119 mL/min
same,Vd at 7 days,"[2]; human, plasma, intravenous, 2000 mg, MAD part 1, 2,000 mg q8h for 7 days, day 7, n = 6, geometric mean (%CV), read-out: Vss",16.5 L
same,half-life,[2]; [13],2.63 h
same,AUC(0-t),[2]; [13],201 µg·h/mL
same,clearance,"[2]; human, plasma, intravenous, 2000 mg, MAD part 3, single dose (day 1 or 2) nacubactam 2,000 mg alone, geometric mean (%CV), read-out: CL (converted)",148 mL/min
same,Tmax at 7 days,"[2]; human, plasma, intravenous, 2000 mg, MAD part 1, 2,000 mg q8h for 7 days",1.33 h
same,Vd,"[2]; human, plasma, intravenous, 2000 mg, read-out: Vss",26.2 L
same,Cmax at 7 days,[2]; [14],179 µg/mL
same,half-life,[2]; [14],2.69 h
same,AUC(0-t),[2]; [14],496 µg·h/mL
same,clearance,"[2]; human, plasma, intravenous, 4000 mg, MAD part 2, 4,000 mg q8h for 7 days, day 9, n = 6, geometric mean (%CV), read-out: CL (converted)",134 mL/min
same,Vd at 7 days,"[2]; human, plasma, intravenous, 4000 mg, MAD part 2, 4,000 mg q8h for 7 days, day 9, n = 6, geometric mean (%CV), read-out: Vss",20.1 L
same,half-life,[2]; [15],2.38 h
same,AUC(0-t),[2]; [15],204 µg·h/mL
same,clearance,"[2]; human, plasma, intravenous, MAD part 3, single dose (day 3) nacubactam 2,000 mg plus meropenem 2,000 mg, geometric mean (%CV), read-out: CL (converted)",149 mL/min
same,clearance,"[2]; human, plasma, intravenous, single (1,000 to 8,000 mg) and multiple (1,000 to 4,000 mg) doses, read-out: estimated CL, range on average",120 to 148 mL/min
